Results taken from PMC5762315, “Inhibition of polo-like kinase 4 (PLK4): a new therapeutic option for rhabdoid tumors and pediatric medulloblastoma” (Oncotarget, 2017).
“And” between values parts separate entries of the source, which are not always exact repeats. Equal entries are not always repeated.

Legend:
DDR2 = DDR2 (Homo sapiens, UniProt Q16832); assay: Kinase activity screening (SelectScreen), DDR2; assay type: biochemical
[1] = set-up: method as in PMID 28057846; settings: adults with advanced solid tumors; cited from earlier work
[2] = test system: BT-12 AT/RT orthotopic xenografts; assay: Intracranial AT/RT xenograft tumors; assay type: in vivo, athymic mice
From the text: Six-week-old female athymic mice (rnu/rnu genotype, BALB/c background) were purchased from Envigo (Harlan) and housed under aseptic conditions, which included filtered air and sterilized food, water, bedding, and cages. The Northwestern University Institutional Animal Care and Use Committee approved all animal protocols. The BT-12 AT/RT cell line, which has high expression of PLK4 was modified to express luciferase and injected intracranially in nude mice as previously described. Each mouse was injected with a cell suspension (10,000 cells/3μL) into the right caudate putamen of the brain. […] Bioluminescence monitoring was performed twice a week throughout the course of the experiment for quantitative measurement of tumor growth and response to therapy. Kaplan-Meier survival analysis was performed to assess survival benefit within the treatment group as compared to controls. Differences between survival curves were calculated using a log-rank test. Brains were resected at 6 hours following completion of the treatment and placed in 4% paraformaldehyde for subsequent histological examination.

MON cells = assay: Viability assay (Presto Blue), MON; assay type: cell-based; settings: Homo sapiens, dose-response 1nM to 10μM
Protocol: (§1) Except DAOY and D283, all cell lines were plated with 2 x 10^3 cells per well 96-well and the absorbance was measured after 48 and 72 hours at drug concentrations of 5, 10, 50, 100, 200, 500nM, 1μM and 5μM.

G401 RTK cells = assay: Confluency assay (IncuCyte ZOOM), G401; assay type: cell-based, human; settings: increasing concentrations starting at 31.25nM, 48 hours, p-value=0.004
Protocol: (§2) For further evaluation of the effect of the PLK4 inhibitor over tumor cell proliferation, confluency was measured over a 48 hour period. MON, BT-12, G401 and DAOY cells were plated in 96-well plates with a density of 6 x 10^4 per well. […] Confluency was monitored for 48 hours by taking phase contrast images every 2 hours and measured using an IncuCyte ZOOM system (Essen BioScience, USA). Experiments were performed in triplicates.

[3] = test system: MON, G401, BT-12 and BT-16 rhabdoid cell lines; assay: Flow cytometry apoptosis (Annexin V / PI); assay type: cell-based, human; settings: G401, BT-12, BT-16, 100nM for 48 hours
Protocol: Live cells were stained with Annexin V as an indicator of early apoptosis and Propidium Iodide (PI - Thermo Fisher Scientific, USA) for detection of late apoptosis and necrosis, according to manufacturer’s instructions (Thermo Fisher Scientific, USA). Flow cytometric analysis was performed on a BD Fortessa instrument (BD Biosciences, USA) within an hour of staining. Data was analyzed using Modfit LT from Verity Software House. All experiments were performed in triplicates.

AURKC = AURKC (Homo sapiens, UniProt Q9UQB9); assay: Kinase activity screening (SelectScreen), AURKC; assay type: biochemical; settings: read-out: kinase activity inhibited
Sequence of AURKC (Q9UQB9 whole entry): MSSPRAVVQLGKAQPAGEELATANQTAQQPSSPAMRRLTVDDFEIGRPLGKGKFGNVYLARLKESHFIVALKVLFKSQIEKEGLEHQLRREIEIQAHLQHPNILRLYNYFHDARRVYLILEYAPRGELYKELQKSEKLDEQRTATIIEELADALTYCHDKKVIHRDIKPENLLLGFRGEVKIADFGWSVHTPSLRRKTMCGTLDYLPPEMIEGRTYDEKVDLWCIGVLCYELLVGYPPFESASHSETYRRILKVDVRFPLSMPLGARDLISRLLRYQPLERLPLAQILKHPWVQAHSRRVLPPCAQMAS

MON MRT cells = assay: Confluency assay (IncuCyte ZOOM), MON; assay type: cell-based, human; settings: increasing concentrations starting at 31.25nM, 48 hours, p-value=0.004
Protocol: as §2

[4] = test system: MON, G401, BT-12, BT-16, DAOY and D283 cell lines; assay: Senescence beta-galactosidase assay; assay type: cell-based, human; settings: all cell lines (MON, G401, BT-12, BT-16, DAOY, D283); 100nM, 48 hours
Protocol: For each cell line, cells were seeded in 6-well plates in triplicates with 100,000 cells per well. Treatment medium was added the next day and incubated for 48 or 72 hrs. After incubation, cells were washed twice with 1X PBS and 1mL of the Fixation Buffer from the kit was added to each well of the plate and incubated at RT for 5 min. Cells were washed with 1X PBS and 1mL of staining solution from the kit was added to each well and incubated at 37°C without CO2 overnight. The next day, the cells were washed with 1X PBS and the numbers of blue stained cells (which indicate senescent cells) and unstained cells were counted in image J (www.imagej.nih.gov). The percentage of senescent cells was calculated.

MON rhabdoid cells [5] = assay: Flow cytometry cell cycle analysis (polyploidy), MON; assay type: cell-based, human; settings: 100nM for 3-72 hours
Protocol: Cell cycle evaluation was performed by staining the cells with PI (Thermo Fisher Scientific, USA) according to manufacturer’s instructions. […] Data was analyzed using Modfit LT from Verity Software House. Experiments were performed in triplicates.

G401 cells = assay: Viability assay (Presto Blue), G401; assay type: cell-based; settings: Homo sapiens, G-401, dose-response 1nM to 10μM
Protocol: as §1

[6] = test system: non-neoplastic human fibroblast cells (HFF-SCC058); assay: Immunofluorescence for gamma-tubulin (centriole number), fibroblasts; assay type: cell-based; settings: 100nM and 500nM
Protocol: (§3) The cells were then blocked in blocking buffer (5% BSA (Jackson Immuno Research Laboratories Inc., USA) in PBST) for 1 hour at RT. The primary antibody ([…] 1:500, Sigma, USA) diluted in 1% BSA in PBST was then added and incubated at 4°C overnight. Then, the cells were washed with 1X PBS thrice. Secondary antibody (Anti-Rabbit IgG (H+L) F (ab’) 2, 1:500, Sigma, USA) diluted in 1% BSA in PBST was added and incubated at RT for 2 hours. Three time washes with 1X PBS were performed. Then, 1mL of DAPI (Thermo Fisher Scientific, USA) in PBS (0.5μl of DAPI in 10 ml PBS) was added to the cells and incubated for 10 min at RT. Finally, 3 time washes with 1X PBS were performed and slides were mounted using Mounting Medium (Thermo Fisher Scientific, USA).

BT-12 cells = assay: Viability assay (Presto Blue), BT-12; assay type: cell-based; settings: Homo sapiens, dose-response 1nM to 10μM
Protocol: as §1

ROS1 = ROS1 (Homo sapiens, UniProt P08922); assay: Kinase activity screening (SelectScreen), ROS1; assay type: biochemical; settings: ZLYTE
Sequence of ROS1 (P08922 28-2347): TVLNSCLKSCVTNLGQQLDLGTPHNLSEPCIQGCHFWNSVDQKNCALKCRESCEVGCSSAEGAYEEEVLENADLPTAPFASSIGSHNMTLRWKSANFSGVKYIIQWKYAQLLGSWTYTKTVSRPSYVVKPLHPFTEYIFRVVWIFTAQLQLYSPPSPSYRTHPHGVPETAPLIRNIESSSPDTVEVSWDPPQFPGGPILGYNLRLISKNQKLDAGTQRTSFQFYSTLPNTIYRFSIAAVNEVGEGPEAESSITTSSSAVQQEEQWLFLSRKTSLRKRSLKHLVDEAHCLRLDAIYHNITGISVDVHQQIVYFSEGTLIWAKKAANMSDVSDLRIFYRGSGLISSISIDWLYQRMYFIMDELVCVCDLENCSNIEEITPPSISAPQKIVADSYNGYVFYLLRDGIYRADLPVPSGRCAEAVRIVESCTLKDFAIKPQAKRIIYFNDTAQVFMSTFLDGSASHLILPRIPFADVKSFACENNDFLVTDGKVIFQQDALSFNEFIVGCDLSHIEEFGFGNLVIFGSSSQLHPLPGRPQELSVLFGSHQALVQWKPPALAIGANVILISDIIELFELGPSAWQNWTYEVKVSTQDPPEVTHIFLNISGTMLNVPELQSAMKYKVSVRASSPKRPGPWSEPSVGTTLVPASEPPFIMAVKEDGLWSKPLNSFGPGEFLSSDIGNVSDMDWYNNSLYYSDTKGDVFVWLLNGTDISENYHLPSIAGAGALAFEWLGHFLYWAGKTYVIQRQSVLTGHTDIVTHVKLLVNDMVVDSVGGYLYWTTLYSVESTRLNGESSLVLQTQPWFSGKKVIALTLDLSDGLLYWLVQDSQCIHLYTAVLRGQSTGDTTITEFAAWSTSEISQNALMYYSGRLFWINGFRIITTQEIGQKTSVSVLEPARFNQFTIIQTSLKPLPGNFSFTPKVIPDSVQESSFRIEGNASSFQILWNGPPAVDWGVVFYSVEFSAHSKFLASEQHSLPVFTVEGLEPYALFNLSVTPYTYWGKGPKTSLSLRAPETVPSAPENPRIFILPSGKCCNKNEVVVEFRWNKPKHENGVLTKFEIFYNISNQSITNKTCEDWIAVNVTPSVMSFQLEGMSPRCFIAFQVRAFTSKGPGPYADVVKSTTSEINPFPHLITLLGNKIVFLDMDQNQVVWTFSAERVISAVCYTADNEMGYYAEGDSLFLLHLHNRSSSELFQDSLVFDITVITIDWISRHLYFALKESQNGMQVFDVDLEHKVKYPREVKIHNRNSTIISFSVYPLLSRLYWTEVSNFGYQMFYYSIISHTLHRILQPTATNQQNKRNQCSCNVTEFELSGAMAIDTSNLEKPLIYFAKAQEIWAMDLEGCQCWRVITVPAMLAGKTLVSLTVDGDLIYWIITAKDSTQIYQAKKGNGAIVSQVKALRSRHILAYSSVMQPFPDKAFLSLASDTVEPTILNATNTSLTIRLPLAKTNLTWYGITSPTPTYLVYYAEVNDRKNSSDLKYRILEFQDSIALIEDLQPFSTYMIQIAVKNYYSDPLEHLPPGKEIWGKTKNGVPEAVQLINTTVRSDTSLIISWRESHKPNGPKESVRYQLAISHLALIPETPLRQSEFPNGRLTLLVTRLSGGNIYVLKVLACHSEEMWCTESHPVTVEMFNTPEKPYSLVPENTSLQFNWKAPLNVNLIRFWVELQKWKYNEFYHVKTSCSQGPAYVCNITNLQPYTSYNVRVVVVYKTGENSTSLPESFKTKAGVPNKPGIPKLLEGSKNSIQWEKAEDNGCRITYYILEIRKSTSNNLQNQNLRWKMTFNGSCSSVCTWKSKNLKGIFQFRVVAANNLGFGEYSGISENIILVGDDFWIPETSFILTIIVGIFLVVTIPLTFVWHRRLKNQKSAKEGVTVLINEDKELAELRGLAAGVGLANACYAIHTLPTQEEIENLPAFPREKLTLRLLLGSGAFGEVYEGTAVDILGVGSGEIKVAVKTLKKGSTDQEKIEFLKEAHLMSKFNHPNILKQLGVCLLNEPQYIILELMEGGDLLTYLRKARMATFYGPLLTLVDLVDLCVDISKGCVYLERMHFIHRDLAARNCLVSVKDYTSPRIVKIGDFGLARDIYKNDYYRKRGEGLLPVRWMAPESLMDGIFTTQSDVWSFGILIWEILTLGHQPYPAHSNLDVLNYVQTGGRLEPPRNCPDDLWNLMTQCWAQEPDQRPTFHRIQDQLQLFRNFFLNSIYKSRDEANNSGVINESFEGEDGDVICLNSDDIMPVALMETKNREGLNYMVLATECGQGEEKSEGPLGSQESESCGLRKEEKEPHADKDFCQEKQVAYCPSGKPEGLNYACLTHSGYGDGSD

DAOY MB cells = assay: Confluency assay (IncuCyte ZOOM), DAOY; assay type: cell-based, human; settings: increasing concentrations starting at 31.25nM, 48 hours, p-value=0.029
Protocol: as §2

MON rhabdoid cells [7] = assay: Immunofluorescence for gamma-tubulin (centriole number), MON; assay type: cell-based, human; settings: 48 hours
Protocol: as §3

[8] = H&E of xenografts, treated vs control, p-value<0.0001

Sequence of DDR2 (Q16832 22-855): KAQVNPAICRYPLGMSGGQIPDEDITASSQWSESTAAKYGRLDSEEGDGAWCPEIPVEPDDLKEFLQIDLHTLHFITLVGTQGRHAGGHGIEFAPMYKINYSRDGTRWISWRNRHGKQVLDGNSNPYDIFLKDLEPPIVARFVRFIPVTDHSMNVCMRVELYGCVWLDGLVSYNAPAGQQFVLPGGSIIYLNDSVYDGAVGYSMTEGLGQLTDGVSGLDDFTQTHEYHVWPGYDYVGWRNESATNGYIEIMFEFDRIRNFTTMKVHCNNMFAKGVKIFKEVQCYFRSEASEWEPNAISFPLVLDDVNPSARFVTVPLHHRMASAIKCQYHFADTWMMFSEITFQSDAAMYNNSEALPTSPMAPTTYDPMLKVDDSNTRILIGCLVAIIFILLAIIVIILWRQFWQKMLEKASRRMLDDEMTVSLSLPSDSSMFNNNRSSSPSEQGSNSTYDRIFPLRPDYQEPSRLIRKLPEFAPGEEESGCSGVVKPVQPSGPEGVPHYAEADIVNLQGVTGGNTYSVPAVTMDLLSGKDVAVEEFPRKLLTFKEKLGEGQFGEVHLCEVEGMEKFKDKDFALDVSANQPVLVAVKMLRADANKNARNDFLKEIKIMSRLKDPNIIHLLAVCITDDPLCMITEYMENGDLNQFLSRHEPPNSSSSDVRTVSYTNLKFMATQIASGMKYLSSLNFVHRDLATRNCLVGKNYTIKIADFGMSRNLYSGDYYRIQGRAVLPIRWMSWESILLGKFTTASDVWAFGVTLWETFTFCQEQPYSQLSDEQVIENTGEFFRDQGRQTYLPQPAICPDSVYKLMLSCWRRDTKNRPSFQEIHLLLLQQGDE

SMILES: COc1ccc2c(c1)[C@]1(C[C@H]1c1ccc3c(/C=C/c4ccc(CN5C[C@@H](C)O[C@@H](C)C5)cc4)n[nH]c3c1)C(=O)N2 [CFI-400945]
- IC50 (DDR2; 10-point titration): 0.315 µM
- % Inhibition (DDR2; DDR2, LanthaScreen Binding): 9% and 18%
- tolerability, preliminary phase I results [1]: well tolerated at doses up to 72 mg
- growth of intracranial AT/RT tumors (luminescence) ([2]; 7.5 mg/kg/day oral for 21 days, p=0.0146): significantly reduced
- survival of treated animals ([2]; 7.5 mg/kg/day oral for 21 days, p=0.0477, log-rank test): extended
- nuclear area FC in tumor cells [2, 8]: 21.67
- nuclear diameter FC in tumor cells [2, 8]: 2.69
- IC50 (MON cells): 5.13 µM
- FC, delay in reaching confluency (G401 RTK cells): 1.78
- cell death (apoptosis, flow cytometry) vs control [3]: significantly higher percentage of cells undergoing cell death
- inhibition at 0.5 µM (AURKC): 84%
- FC, delay in reaching confluency (MON MRT cells): 1.56
- senescent cells (beta galactosidase) [4]: significant increase
- polyploidy (cell cycle analysis) (MON rhabdoid cells [5]): time-dependent induction of polyploidy
- IC50 (G401 cells): 3.79 µM
- paradoxical effect on centriole number [6]: not observed
- IC50 (BT-12 cells): 3.73 µM
- % Inhibition Duplicate #1 (ROS1): 99%
- FC, delay in reaching confluency (DAOY MB cells): 1.70
- centrioles' number (MON rhabdoid cells [7]; 100nM): slight increase
- centrioles' number (MON rhabdoid cells [7]; 500nM): significant depletion
